Assay: Metabolic stability in liver microsomes, dog
Format: in vitro ADME
Method: In this study, the metabolic stability of IDP-73152 in microsomes from mice, rats, dogs, and humans, as well as rat hepatocytes, was determined. For a microsomal incubation study, the incubation mixtures, containing mouse, rat, dog, or human liver microsomes at a protein concentration of 0.5 mg/mL, 3.3 mM MgCl2, and 1.3 mM NADPH, in a 100 mM potassium phosphate buffer (pH 7.4), were preincubated for 3 min at 37 °C. In parallel, a control incubation mixture (i.e., identical composition to that of the incubation mixture without NADPH) was also prepared for comparison. The reaction was initiated by the addition of a 10 × solution of IDP-73152 (final concentration in mixtures of 1 μM) to the incubation mixtures or the control incubation mixtures. The mixtures were incubated in a shaking water bath (37 °C, 90 rpm). Aliquots (30 μL) were collected at 0, 15, 30, and 45 min from the mixture and the reaction was terminated by the addition of a 4-fold volume of ice-cold acetonitrile to the sample. The mixture was then vortexed for 5 min and centrifuged for 10 min at 10,000× g. The supernatant was collected and stored at -80 °C until the analysis. For the hepatocyte incubation study, rat hepatocytes were freshly prepared using the two-step collagenase perfusion method with slight modifications. After the isolation, cell viability during the preparation process was first determined by a trypan blue exclusion assay prior to the stability study. The preparation was considered adequate for subsequent studies if the viability was greater than 80%. When appropriate, the hepatocytes were resuspended in Williams' media E containing 10% fetal bovine serum, 1% penicillin-streptomycin, and 0.01% insulin-transferrin-selenium (i.e., 10 mg/mL insulin, 5.5 mg/mL transferrin, and 5 mg/mL selenium) at pH 7.4. The reaction was carried out with the hepatocyte suspension prepared at 1 × 10^6 cells/mL (0.5 mL) and initiated by the addition of equal volume of IDP-73152 solution (i.e., final concentration of the compound at 1 μM in 0.5 × 10^6 cells/mL of hepatocytes) to the hepatocyte suspension. […] Assuming first-order disappearance kinetics, the slope k of the logarithmically transformed IDP-73152 concentration in the sample versus time plot was determined by the linear regression analysis of the data. The total intrinsic clearance (CLint,mic, μL/min/mg protein for microsomal incubation study and CLint,hep, μL/min/million cells for hepatocytes incubation study) was then calculated using the following equations:(4) CLint, mic=k×Volume of incubation medium (μL)/Protein in incubation medium (mg) (5) CLint,hep=k×Volume of incubation (μL)/Number of cells in incubation (×10^6) The unbound intrinsic clearance, with respect to the whole liver ([…]), was then estimated for the two cases. […]

Question: Which results are given for `CC(C)(C)[C@H](NC(=O)[C@H](CC1CCCC1)CN(O)C=O)C(=O)N1CCC(NCc2cc(F)c(F)cc2F)CC1` [IDP-73152]?
Answer: CLhep predicted at 1 μM (dog, liver microsomes, pH 7.4, dogs, read-out: CLh calculated from the CLint,mic (converted)): 8.87 mL/min/kg; microsomal CLint at 1 μM (dog, pH 7.4, dogs liver microsomes 0.5 mg/mL, 1 μM, read-out: CLint,mic): 62.6 ± 2.4 µL/min/mg; hepatic ER (extraction ratio) (dogs, from microsomal clearance, well-stirred model): 0.106 ± 0.004; CLu,int,H (dogs, scaled up to the whole liver from microsomes): 108 ± 4 L/h

From publication PMC9227536, “Prediction of Pharmacokinetics of IDP-73152 in Humans Using Physiologically-Based Pharmacokinetics” (Pharmaceutics, 2022)
